The subject of one data set is SaOS-2 cells. The data set can be described thus: MTT cell viability assay on SaOS-2. Particulars: SaOS-2, MTT, control = 100%, mean ± SD; for CV (%) after 24 h (cellular viability with respect to control): 24 h treatment; for CV (%) after 48 h (cellular viability with respect to control): 48 h treatment, 25 μM. On the technique in general: Tetrazolium assays rely on reduction of a dye to a coloured formazan, in cell work by metabolically active cells.

In a further data set the target is recombinant human Src (Homo sapiens, UniProt P12931). The data set can be described thus: cell-free Src enzymatic assay. Format: biochemical. Particulars: calculated from ID50; triplicate, mean values; read-out: Ki toward recombinant human Src.
Sequence of recombinant human Src (P12931 whole entry): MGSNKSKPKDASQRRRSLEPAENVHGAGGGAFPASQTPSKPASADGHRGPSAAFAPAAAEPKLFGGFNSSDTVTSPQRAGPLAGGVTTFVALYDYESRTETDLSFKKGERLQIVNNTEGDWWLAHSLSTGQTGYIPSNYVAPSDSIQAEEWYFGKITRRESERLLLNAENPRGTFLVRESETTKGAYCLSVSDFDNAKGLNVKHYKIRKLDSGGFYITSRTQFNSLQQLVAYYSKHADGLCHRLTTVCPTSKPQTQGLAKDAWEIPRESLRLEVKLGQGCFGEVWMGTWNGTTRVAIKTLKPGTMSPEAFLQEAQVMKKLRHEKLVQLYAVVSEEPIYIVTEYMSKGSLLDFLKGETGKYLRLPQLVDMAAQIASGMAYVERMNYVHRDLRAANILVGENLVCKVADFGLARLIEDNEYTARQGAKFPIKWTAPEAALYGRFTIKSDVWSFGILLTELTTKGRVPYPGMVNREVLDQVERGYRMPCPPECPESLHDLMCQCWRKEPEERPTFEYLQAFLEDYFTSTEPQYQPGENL

As for `CSc1nc(NCCc2ccc(Cl)cc2)c2cnn(CC(Cl)c3ccccc3)c2n1` (centres unmarked) [SI-57], in the data set with SaOS-2 cells, the “CV (%) after 24 h (cellular viability with respect to control)” value (“CV (%) after 24 h” below) came out at 85.2 ± 0.7% and the “CV (%) after 48 h (cellular viability with respect to control)” value (“CV (%) after 48 h” for short) amounted to 75.4 ± 1.3%.

As for `CSc1nc(Nc2cccc(F)c2)c2cnn(CC(Cl)c3ccccc3)c2n1` (centres unmarked) [SI-90], in the data set on SaOS-2 cells, the “CV (%) after 24 h” value is 94.8 ± 2.7% and the “CV (%) after 48 h” value turned out to be 84.3 ± 1.5%.

As to `CSc1nc(NCc2ccccc2)c2cnn(CC(Cl)c3ccc(F)cc3)c2n1` (centres unmarked) [SI-65], the melting point (usually the temperature, or range, at which the solid turns liquid) is 152 to 153 °C. Besides, in the data set on SaOS-2 cells, the “CV (%) after 24 h” value is 62.7 ± 0.7% and the “CV (%) after 48 h” value turned out to be 44.4 ± 2.5%.

For the molecule `CSc1nc(Nc2ccccc2)c2cnn(CC(Cl)c3ccccc3)c2n1` (centres unmarked) [SI-118], in the data set with SaOS-2 cells, the “CV (%) after 24 h” value was found to be 100.1 ± 1.2% and the “CV (%) after 48 h” value amounted to 94.4 ± 0.7%.

For the molecule `CSc1nc(NCc2ccccc2Cl)c2cnn(CC(Cl)c3ccccc3)c2n1` (centres unmarked) [SI-88], the melting point is 158 to 159 °C. Besides, in the data set on SaOS-2 cells, the “CV (%) after 24 h” value stood at 101.7 ± 0.9% and the “CV (%) after 48 h” value was 102.1 ± 1.2%.

For `CSc1nc(NCc2ccccc2)c2cnn(CC(Cl)c3ccc(Cl)cc3)c2n1` (centres unmarked) [SI-70], the melting point fell in the range of 130 to 131 °C. Moreover, in the data set on SaOS-2 cells, the “CV (%) after 24 h” value was found to be 52.2 ± 2.4% and the “CV (%) after 48 h” value was 24.4 ± 2.5%.

As for `CSc1nc(NCCc2cccc(F)c2)c2cnn(CC(Cl)c3ccccc3)c2n1` (centres unmarked) [SI-56], in the data set with SaOS-2 cells, the “CV (%) after 24 h” value was determined as 101.1 ± 1.1% and the “CV (%) after 48 h” value amounted to 100.8 ± 2.1%.

With `CSc1nc(NCc2cccc(F)c2)c2cnn(CC(Cl)c3ccccc3)c2n1` (centres unmarked) [SI-85], the melting point was 113 to 114 °C. Also, in the data set on SaOS-2 cells, the “CV (%) after 24 h” value was determined as 106.2 ± 3.0% and the “CV (%) after 48 h” value is reported as 71.3 ± 2.1%.

With `CCSc1nc(Nc2cccc(Cl)c2)c2cnn(CC(Cl)c3ccccc3)c2n1` (centres unmarked) [SI-96], the Ki (usually the equilibrium dissociation constant of an inhibitor or competing ligand from its target) at recombinant human Src was 500 nM. In the data set with SaOS-2 cells, the “CV (%) after 24 h” value amounted to 76.5 ± 1.9% and the “CV (%) after 48 h” value was 44.3 ± 1.8%.

With `CSc1nc(Nc2cccc(Br)c2)c2cnn(CC(Cl)c3ccc(F)cc3)c2n1` (centres unmarked) [SI-128], in the data set with SaOS-2 cells, the “CV (%) after 24 h” value was 63.1 ± 1.1% and the “CV (%) after 48 h” value was 55.4 ± 2.0%.

On to `CSc1nc(NCCc2ccccc2Cl)c2cnn(CC(Cl)c3ccccc3)c2n1` (centres unmarked) [SI-59], for which the melting point fell in the range of 99 to 100 °C. Moreover, in the data set on SaOS-2 cells, the “CV (%) after 24 h” value is given as 102.9 ± 1.3% and the “CV (%) after 48 h” value was determined as 100.5 ± 0.5%.

Turning to `Clc1cccc(Nc2ncnc3c2cnn3CC(Cl)c2ccccc2)c1` (centres unmarked) [S-17], in the data set with SaOS-2 cells, the “CV (%) after 24 h” value came to 104.1 ±0.4% and the “CV (%) after 48 h” value was 101.3 ± 1.5%.

With `CSc1nc(Nc2cccc(Br)c2)c2cnn(CC(Cl)c3ccccc3)c2n1` (centres unmarked) [SI-91], the Ki on recombinant human Src is 1800 nM. In the data set with SaOS-2 cells, the “CV (%) after 24 h” value is given as 100.1 ± 1.1% and the “CV (%) after 48 h” value was 84.7 ± 0.3%.

Take `Clc1cccc(Nc2nc(SC3CCCCC3)nc3c2cnn3CC(Cl)c2ccccc2)c1` (centres unmarked) [SI-153]: the Ki at recombinant human Src is 700 nM.

The molecule `CSc1nc(NCCc2ccccc2)c2cnn(CC(Cl)c3ccc(Cl)cc3)c2n1` (centres unmarked) [SI-71] yielded a melting point of 127 to 129 °C. In addition, in the data set with SaOS-2 cells, the “CV (%) after 24 h” value stood at 99.9 ± 0.9% and the “CV (%) after 48 h” value is 89.4 ± 2.3%.

On to `CCCSc1nc(Nc2cccc(Cl)c2)c2cnn(CC(Cl)c3ccccc3)c2n1` (centres unmarked) [SI-101], for which, in the data set on SaOS-2 cells, the “CV (%) after 24 h” value was found to be 77.8 ± 3.0% and the “CV (%) after 48 h” value turned out to be 6.4 ± 1.9%.

The molecule `CSc1nc(NCCc2ccc(C)cc2)c2cnn(CC(Cl)c3ccccc3)c2n1` (centres unmarked) [SI-60] yielded a melting point of 99 to 100 °C. Besides, in the data set with SaOS-2 cells, the “CV (%) after 24 h” value is given as 101.9 ± 1.9% and the “CV (%) after 48 h” value was 96.3 ± 1.1%.

Take `CSc1nc(NCc2ccccc2F)c2cnn(CC(Cl)c3ccccc3)c2n1` (centres unmarked) [SI-86]: in the data set with SaOS-2 cells, the “CV (%) after 24 h” value is listed as 104.1 ± 1.3% and the “CV (%) after 48 h” value was found to be 99.7 ± 0.4%.

`CCSc1nc(NCCc2ccccc2)c2cnn(CC(Cl)c3ccccc3)c2n1` (centres unmarked) [S1-72] yielded a melting point of 99 to 100 °C. Also, in the data set on SaOS-2 cells, the “CV (%) after 24 h” value was 107.3 ± 3.5% and the “CV (%) after 48 h” value was 22.2 ± 1.3%.

`CSc1nc(NCCc2cccc(Cl)c2)c2cnn(CC(Cl)c3ccccc3)c2n1` (centres unmarked) [SI-58] displayed a melting point of 122 to 123 °C. Moreover, in the data set with SaOS-2 cells, the “CV (%) after 24 h” value came out at 80.6 ± 0.7% and the “CV (%) after 48 h” value is 39.3 ± 2.0%.

Consider `COc1ccc(CCNc2nc(SC)nc3c2cnn3CC(Cl)c2ccccc2)cc1` (centres unmarked) [SI-61], for which the melting point was in the range of 60 to 61 °C. Moreover, in the data set on SaOS-2 cells, the “CV (%) after 24 h” value turned out to be 101.0 ± 3.0% and the “CV (%) after 48 h” value is 49.8 ± 2.1%.

For `CSc1nc(NCc2ccc(Cl)cc2)c2cnn(CC(Cl)c3ccccc3)c2n1` (centres unmarked) [SI-87], the melting point lay within 126 to 127 °C. In addition, in the data set on SaOS-2 cells, the “CV (%) after 24 h” value is reported as 113.4 ± 1.5% and the “CV (%) after 48 h” value was found to be 54.9 ± 2.4%.

For `CSc1nc(NCc2ccc(F)cc2)c2cnn(CC(Cl)c3ccccc3)c2n1` (centres unmarked) [SI-84], the melting point is 136 to 137 °C. Also, in the data set on SaOS-2 cells, the “CV (%) after 24 h” value came out at 102.1 ± 1.4% and the “CV (%) after 48 h” value amounted to 99.2 ± 1.0%.
